# Results: patent publication US20260183297A1, “SELECTION OF PATIENTS FOR THE TREATMENT OF FADS1-MEDIATED DISEASES OR DISORDERS USING FADS-1 INHIBITORS” (AMGEN INC., priority 2022, published 2026)
# Marks after values point to notes of the source that are not given here.
# Assay: Fatty acid concentration and composition of plasma lipid subfractions (GC) of Compound A-treated DIO mice
# Type: in vivo, mouse
# Description: FIG. 16(b) provides fatty acid composition of total plasma and each of the 4 plasma lipid subfractions of vehicle treated (WT) and 30 mg/kg Compound A-treated WT DIO mice (WT+A). (a-b) n=3 samples per group (each sample pooled from 2 mice). (a) Data are shown as minimum to maximum. t-test *P<0.05, **P<0.01, ***P<0.001.
# [1] = DIO mouse plasma, Cholesterol ester, 30 mg/kg, GC, mean
# [2] = DIO mouse plasma, Cholesterol ester, 30 mg/kg, GC, mean % composition
# [3] = DIO mouse plasma, Free fatty acids, 30 mg/kg, GC, mean
# [4] = DIO mouse plasma, Free fatty acids, 30 mg/kg, GC, mean % composition
# [5] = DIO mouse plasma, Phospholipids, 30 mg/kg, GC, mean
# [6] = DIO mouse plasma, Phospholipids, 30 mg/kg, GC, mean % composition
smiles,measurement,setting,value
"COc1ccn2c(=O)c(-c3cnn(CC(F)(F)C(F)(F)F)c3)c(C(F)(F)F)nc2c1 [Compound A, 8-methoxy-3-(1-(2,2,3,3,3-pentafluoropropyl)-1H-pyrazol-4-yl)-2-(trifluoromethyl)-4H-pyrido[1,2-a]pyrimidin-4-one]",EPA/AA ratio in all four lipid subfractions,"Compound A-treated DIO mice, plasma",increased
same,"C14:0 concentration, Cholesterol ester",[1],29.9 µg/mL
same,"C16:0 concentration, Cholesterol ester",[1],90.5 µg/mL
same,"C16:1n7 concentration, Cholesterol ester",[1],27.7 µg/mL
same,"C16:1n7t concentration, Cholesterol ester",[1],2.6 µg/mL
same,"C18:0 concentration, Cholesterol ester",[1],50.3 µg/mL
same,"C18:1n9 concentration, Cholesterol ester",[1],113 µg/mL
same,"C18:1t concentration, Cholesterol ester",[1],8.1 µg/mL
same,"C18:2n6 concentration, Cholesterol ester",[1],516 µg/mL
same,"C18:2n6t concentration, Cholesterol ester",[1],10.4* μg mL^−1
same,"C18:3n3 concentration, Cholesterol ester",[1],3.0 µg/mL
same,"C18:3n6 concentration, Cholesterol ester",[1],20.4* μg mL^−1
same,"C20:0 concentration, Cholesterol ester",[1],1.2 µg/mL
same,"C20:1n9 concentration, Cholesterol ester",[1],0.6 µg/mL
same,"C20:2n6 concentration, Cholesterol ester",[1],1.4 µg/mL
same,"C20:3n6 concentration, Cholesterol ester",[1],124*** μg mL^−1
same,"C20:5n3 concentration, Cholesterol ester",[1],2.8* μg mL^−1
same,"C22:0 concentration, Cholesterol ester",[1],1.3 µg/mL
same,"C22:4n6 concentration, Cholesterol ester",[1],1.5 µg/mL
same,"C22:5n3 concentration, Cholesterol ester",[1],31.0 µg/mL
same,"C22:5n6 concentration, Cholesterol ester",[1],1.7 µg/mL
same,"C22:6n3 concentration, Cholesterol ester",[1],37.4* μg mL^−1
same,"C24:0 concentration, Cholesterol ester",[1],1.2 µg/mL
same,"C24:1n9 concentration, Cholesterol ester",[1],2.6 µg/mL
same,"Total fatty acids concentration, Cholesterol ester",[1],1150* μg mL^−1
same,"C14:0 composition, Cholesterol ester",[2],2.61* %
same,"C16:0 composition, Cholesterol ester",[2],7.89*** %
same,"C16:1n7 composition, Cholesterol ester",[2],2.39* %
same,"C16:1n7t composition, Cholesterol ester",[2],0.23** %
same,"C18:0 composition, Cholesterol ester",[2],4.41* %
same,"C18:1n9 composition, Cholesterol ester",[2],9.73* %
same,"C18:1t composition, Cholesterol ester",[2],0.7*** %
same,"C18:2n6 composition, Cholesterol ester",[2],44.7*** %
same,"C18:2n6t composition, Cholesterol ester",[2],0.9*** %
same,"C18:3n3 composition, Cholesterol ester",[2],0.27%
same,"C18:3n6 composition, Cholesterol ester",[2],1.76*** %
same,"C20:0 composition, Cholesterol ester",[2],0.1%
same,"C20:1n9 composition, Cholesterol ester",[2],0.05%
same,"C20:2n6 composition, Cholesterol ester",[2],0.12%
same,"C20:3n6 composition, Cholesterol ester",[2],10.8*** %
same,"C20:4n6 composition, Cholesterol ester",[2],6.34*** %
same,"C20:5n3 composition, Cholesterol ester",[2],0.25%
same,"C22:0 composition, Cholesterol ester",[2],0.12%
same,"C22:4n6 composition, Cholesterol ester",[2],0.13%
same,"C22:5n3 composition, Cholesterol ester",[2],2.71* %
same,"C22:5n6 composition, Cholesterol ester",[2],0.14%
same,"C22:6n3 composition, Cholesterol ester",[2],3.26** %
same,"C24:0 composition, Cholesterol ester",[2],0.11%
same,"C24:1n9 composition, Cholesterol ester",[2],0.23%
same,"C14:0 concentration, Free fatty acids",[3],18.8 µg/mL
same,"C16:0 concentration, Free fatty acids",[3],132.7 µg/mL
same,"C16:1n7 concentration, Free fatty acids",[3],8.7 µg/mL
same,"C16:1n7t concentration, Free fatty acids",[3],0.5 µg/mL
same,"C18:0 concentration, Free fatty acids",[3],76.8 µg/mL
same,"C18:1n9 concentration, Free fatty acids",[3],98.1* μg mL^−1
same,"C18:1t concentration, Free fatty acids",[3],2.5 µg/mL
same,"C18:2n6 concentration, Free fatty acids",[3],38.5 µg/mL
same,"C18:2n6t concentration, Free fatty acids",[3],3.3 µg/mL
same,"C18:3n3 concentration, Free fatty acids",[3],1.6 µg/mL
same,"C18:3n6 concentration, Free fatty acids",[3],1.2 µg/mL
same,"C20:0 concentration, Free fatty acids",[3],1.8 µg/mL
same,"C20:1n9 concentration, Free fatty acids",[3],2.8 µg/mL
same,"C20:2n6 concentration, Free fatty acids",[3],1.1 µg/mL
same,"C20:3n6 concentration, Free fatty acids",[3],8.1** μg mL^−1
same,"C20:4n6 concentration, Free fatty acids",[3],2.9*** μg mL^−1
same,"C20:5n3 concentration, Free fatty acids",[3],8.3 µg/mL
same,"C22:0 concentration, Free fatty acids",[3],1.4 µg/mL
same,"C22:4n6 concentration, Free fatty acids",[3],1.1* μg mL^−1
same,"C22:5n3 concentration, Free fatty acids",[3],32.0 µg/mL
same,"C22:5n6 concentration, Free fatty acids",[3],0.4 µg/mL
same,"C22:6n3 concentration, Free fatty acids",[3],5.3 µg/mL
same,"C24:0 concentration, Free fatty acids",[3],1.0 µg/mL
same,"C24:1n9 concentration, Free fatty acids",[3],1.8 µg/mL
same,"Total fatty acids concentration, Free fatty acids",[3],451 µg/mL
same,"C14:0 composition, Free fatty acids",[4],4.15%
same,"C16:0 composition, Free fatty acids",[4],29.5%
same,"C16:1n7 composition, Free fatty acids",[4],1.91%
same,"C16:1n7t composition, Free fatty acids",[4],0.11%
same,"C18:0 composition, Free fatty acids",[4],17.1* %
same,"C18:1n9 composition, Free fatty acids",[4],21.8%
same,"C18:1t composition, Free fatty acids",[4],0.57%
same,"C18:2n6 composition, Free fatty acids",[4],8.61%
same,"C18:2n6t composition, Free fatty acids",[4],0.76%
same,"C18:3n3 composition, Free fatty acids",[4],0.34%
same,"C18:3n6 composition, Free fatty acids",[4],0.26* %
same,"C20:0 composition, Free fatty acids",[4],0.39%
same,"C20:1n9 composition, Free fatty acids",[4],0.61%
same,"C20:2n6 composition, Free fatty acids",[4],0.25%
same,"C20:3n6 composition, Free fatty acids",[4],1.82%
same,"C20:4n6 composition, Free fatty acids",[4],0.64*** %
same,"C20:5n3 composition, Free fatty acids",[4],1.75%
same,"C22:0 composition, Free fatty acids",[4],0.31%
same,"C22:4n6 composition, Free fatty acids",[4],0.25* %
same,"C22:5n3 composition, Free fatty acids",[4],7.14%
same,"C22:5n6 composition, Free fatty acids",[4],0.10%
same,"C22:6n3 composition, Free fatty acids",[4],1.15%
same,"C24:0 composition, Free fatty acids",[4],0.22%
same,"C24:1n9 composition, Free fatty acids",[4],0.39%
same,"C14:0 concentration, Phospholipids",[5],5.3 µg/mL
same,"C16:0 concentration, Phospholipids",[5],591 µg/mL
same,"C16:1n7 concentration, Phospholipids",[5],7.7 µg/mL
same,"C18:0 concentration, Phospholipids",[5],302*** μg mL^−1
same,"C18:1n9 concentration, Phospholipids",[5],260 µg/mL
same,"C18:1t concentration, Phospholipids",[5],3.9 µg/mL
same,"C18:2n6 concentration, Phospholipids",[5],400** μg mL^−1
same,"C18:2n6t concentration, Phospholipids",[5],4.5 µg/mL
same,"C18:3n3 concentration, Phospholipids",[5],1.0 µg/mL
same,"C18:3n6 concentration, Phospholipids",[5],4.3 µg/mL
same,"C20:0 concentration, Phospholipids",[5],1.4** μg mL^−1
same,"C20:1n9 concentration, Phospholipids",[5],5.8 µg/mL
same,"C20:2n6 concentration, Phospholipids",[5],9.0 µg/mL
same,"C20:3n6 concentration, Phospholipids",[5],382*** μg mL^−1
same,"C20:4n6 concentration, Phospholipids",[5],31.2*** μg mL^−1
same,"C20:5n3 concentration, Phospholipids",[5],1.2* μg mL^−1
same,"C22:0 concentration, Phospholipids",[5],1.8 µg/mL
same,"C22:4n6 concentration, Phospholipids",[5],2.1*** μg mL^−1
same,"C22:5n3 concentration, Phospholipids",[5],12.8 µg/mL
same,"C22:5n6 concentration, Phospholipids",[5],1.8*** μg mL^−1
same,"C22:6n3 concentration, Phospholipids",[5],70.2** μg mL^−1
same,"C24:0 concentration, Phospholipids",[5],1.0 µg/mL
same,"C24:1n9 concentration, Phospholipids",[5],3.3 µg/mL
same,"Total fatty acids concentration, Phospholipids",[5],2105* μg mL^−1
same,"C14:0 composition, Phospholipids",[6],0.25* %
same,"C16:0 composition, Phospholipids",[6],28.1** %
same,"C16:1n7 composition, Phospholipids",[6],0.36** %
